From US20090018176A1, “FUNGICIDE COMPOSITION COMPRISING AN ARYLAMIDINE DERIVATIVE AND TWO KNOWN FUNGICIDE COMPOUNDS” (Bayer CropScience AG, priority 2005, published 2009)

Legend:
Pyrenophora teres = test: In vivo curative test on Pyrenophora teres (barley); settings: 50 g/ha of each active compound, evaluation 12 days after inoculation, 0% = control, 100% = no infection
Experimental: In Vivo Curative Test on Pyrenophora Teres (Barley) [table] To produce a suitable preparation of active compound, 1 part by weight of active compound or active compound combination is mixed with the stated amounts of solvent and emulsifier, and the concentrate is diluted with water to the desired concentration. To test for curative activity, young plants are sprayed with a conidia suspension of Pyrenophora teres. The plants remain in an incubation cabinet at 20° C. and 100% relative atmospheric humidity for 48 hours. The plants are then sprayed with the preparation of active compound at the stated application rate. The plants are placed in a greenhouse at a temperature of about 20° C. and a relative atmospheric humidity of about 80%. Evaluation is carried out 12 days after the inoculation. 0% means an efficacy which corresponds to that of the control, whereas an efficacy of 100% means that no infection is observed.

Puccinia recondita = test: In vivo preventive test on Puccinia recondita f. sp. tritici (wheat brown rust); settings: 50 g/ha of each active compound, evaluation 12 days after inoculation, 0% = control, 100% = no infection
Experimental: In Vivo Preventive Test on Puccinia Recondite f. Sp. Tritici (Wheat Brown Rust) [table] To produce a suitable preparation of active compound, 1 part by weight of active compound or active compound combination is mixed with the stated amounts of solvent and emulsifier, and the concentrate is diluted with water to the desired concentration. To test for preventive activity, young plants are […] at the stated rate of application. The plants remain for 24 hours in an incubation cabinet at 20° C. and a relative atmospheric humidity of 100%. The plants are placed in a greenhouse at a temperature of approximately 20° C. and a relative atmospheric humidity of approximately 80% to promote the development of rust pustules. Evaluation is carried out 12 days after the inoculation. 0% means an efficacy which corresponds to that of the control, whereas an efficacy of 100% means that no infection is observed. […] Compound 1 according to the invention is N-ethyl-N-methyl-N′-[4-(3-t-butyl-4-chlorphenoxy)-2,5 xylyl]-formamidine.

| Compound | Experimental efficacy (%) (Pyrenophora teres) | Experimental efficacy (%) (Puccinia recondita) |
| --- | --- | --- |
| CCN(C)C=Nc1cc(C)c(Oc2ccc(Cl)c(C(C)(C)C)c2)cc1C [compound 1, N-ethyl-N-methyl-N′-[4-(3-t-butyl-4-chlorphenoxy)-2,5 xylyl]-formamidine] | 0 | 22 |
| OC(Cc1ccccc1Cl)(Cn1nc[nH]c1=S)C1(Cl)CC1 (stereo not drawn) [prothioconazole] | 0 |  |
| CCCN(CC)CC1COC2(CCC(C(C)(C)C)CC2)O1 (stereo not drawn) [spriroxamine, spiroxamine] | 50 | 0 |
| CC(C)(C)C(O)(CCc1ccc(Cl)cc1)Cn1cncn1 (stereo not drawn) [tebuconazole] |  | 78 |
